Experiments:
Assay in all cases: R-SAT broad profiling
Format in all cases: cell-based
[1] = target: T1, K-opiod (Homo sapiens, UniProt P41145); conditions: agonist; read-out: pEC50/pIC50 (converted)
T1 construct: expressed in transfected cells; host or cells: NIH3T3
Procedure: (§1) The functional receptor assay, Receptor Selection and Amplification Technology (R-SAT), was used (with minor modifications from that previously described U.S. Pat. No. 5,707,798) to screen compounds for efficacy at the 5-HT2A receptor. Briefly, NIH3T3 cells were grown in 96 well tissue culture plates to 70-80% confluence. Cells were transfected for 12-16 hours with plasmid DNAs using superfect (Qiagen Inc.) as per manufacture's protocols. R-SAT's were generally performed with 50 ng/well of receptor and 20 ng/well of Beta-galactosidase plasmid DNA. All receptor and G-protein constructs used were in the pSI mammalian expression vector (Promega Inc) as described in U.S. Pat. No. 5,707,798. The 5HT2A receptor gene was amplified by nested PCR from brain cDNA using the oligodeoxynucleotides based on the published sequence (see Saltzman et. al. Biochem. Biophys. Res. Comm. 181:1469-78 (1991)). Large-scale transfections, cells were transfected for 12-16 hours, then trypsinized and frozen in DMSO. Frozen cells were later thawed, plated at 10,000-40,000 cells per well of a 96 well plate that contained drug. With both methods, cells were then grown in a humidified atmosphere with 5% ambient CO2 for five days. Media was then removed from the plates and marker gene activity was measured by the addition of the beta-galactosidase substrate ONPG (in PBS with 5% NP-40). The resulting colorimetric reaction was measured in a spectrophotometric plate reader (Titertek Inc.)at […]. All data were analyzed using the computer program XLFit (IDBSm). Efficacy is the percent maximal repression compared to repression by a control compound (ritanserin in the case of 5HT2A). pIC50 is the negative of the log(IC50), where IC50 is the calculated concentration in Molar that produces 50% maximal repression.
(§2) The R-SAT assay (described above in example 136) was used to investigate the selectivity of 2-(4-Methoxyphenyl)-N-(4-methylbenzyl)-N-(1-methylpiperidin-4-yl)acetamide hydrochloride.

[2] = target: T2, m4 (Homo sapiens, UniProt P08173); conditions: read-out: pEC50/pIC50 (converted)
T2 construct: expressed in transfected cells; host or cells: NIH3T3
T2 sequence (P08173 1-479): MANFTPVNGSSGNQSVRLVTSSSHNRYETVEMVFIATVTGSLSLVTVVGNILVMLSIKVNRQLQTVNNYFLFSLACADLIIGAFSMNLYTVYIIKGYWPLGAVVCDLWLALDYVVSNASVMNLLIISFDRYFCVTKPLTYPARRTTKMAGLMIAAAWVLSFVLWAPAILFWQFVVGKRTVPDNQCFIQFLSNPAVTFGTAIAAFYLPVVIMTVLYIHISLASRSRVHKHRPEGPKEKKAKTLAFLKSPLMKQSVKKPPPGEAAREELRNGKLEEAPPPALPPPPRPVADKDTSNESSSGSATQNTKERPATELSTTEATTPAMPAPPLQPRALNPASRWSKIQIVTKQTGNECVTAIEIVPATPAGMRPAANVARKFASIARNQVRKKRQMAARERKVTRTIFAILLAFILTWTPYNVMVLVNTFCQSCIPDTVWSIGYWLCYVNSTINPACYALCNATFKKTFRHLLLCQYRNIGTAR
Procedure: as §1, §2

[3] = target: T3, alpha 2B (Homo sapiens, UniProt P18089); conditions: read-out: pEC50/pIC50 (converted)
T3 construct: expressed in transfected cells; host or cells: NIH3T3
T3 sequence (P18089 1-450): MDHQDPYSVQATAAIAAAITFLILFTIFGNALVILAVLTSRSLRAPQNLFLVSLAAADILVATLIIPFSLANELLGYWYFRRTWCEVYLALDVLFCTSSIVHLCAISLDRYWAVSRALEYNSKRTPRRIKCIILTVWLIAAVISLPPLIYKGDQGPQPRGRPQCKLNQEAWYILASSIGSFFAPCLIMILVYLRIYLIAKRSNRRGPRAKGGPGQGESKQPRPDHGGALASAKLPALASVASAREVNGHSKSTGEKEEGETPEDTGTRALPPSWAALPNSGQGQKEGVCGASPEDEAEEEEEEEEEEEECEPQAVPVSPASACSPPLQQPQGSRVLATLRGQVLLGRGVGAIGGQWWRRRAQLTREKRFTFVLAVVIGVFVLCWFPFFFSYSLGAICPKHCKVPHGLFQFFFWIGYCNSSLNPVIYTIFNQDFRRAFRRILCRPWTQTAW
Procedure: as §1, §2

[4] = target: T4, Histamine 1 (Homo sapiens, UniProt P35367); conditions: read-out: pEC50/pIC50 (converted)
T4 construct: expressed in transfected cells; host or cells: NIH3T3
Procedure: as §1, §2

[5] = target: T5, Vasopressin1A (Homo sapiens, UniProt P37288); conditions: agonist; read-out: pEC50/pIC50 (converted)
T5 construct: expressed in transfected cells; host or cells: NIH3T3
Procedure: as §1, §2

[6] = target: T6, alpha 2A (Homo sapiens, UniProt P08913); conditions: read-out: pEC50/pIC50 (converted)
T6 construct: expressed in transfected cells; host or cells: NIH3T3
T6 sequence (P08913 1-465): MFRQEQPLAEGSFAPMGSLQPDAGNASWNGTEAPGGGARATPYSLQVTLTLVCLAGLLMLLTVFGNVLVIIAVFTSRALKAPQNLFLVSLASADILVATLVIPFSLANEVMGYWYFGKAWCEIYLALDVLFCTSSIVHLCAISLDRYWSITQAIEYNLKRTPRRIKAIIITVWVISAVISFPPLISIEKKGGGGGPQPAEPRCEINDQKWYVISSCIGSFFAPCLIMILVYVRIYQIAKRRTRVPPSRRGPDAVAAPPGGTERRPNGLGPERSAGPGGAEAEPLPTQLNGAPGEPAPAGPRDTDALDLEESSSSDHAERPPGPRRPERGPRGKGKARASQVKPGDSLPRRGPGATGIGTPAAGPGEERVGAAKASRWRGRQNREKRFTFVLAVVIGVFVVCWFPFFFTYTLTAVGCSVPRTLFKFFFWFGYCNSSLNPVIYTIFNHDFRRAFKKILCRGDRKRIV
Procedure: as §1, §2

[7] = target: T7, m3 (Homo sapiens, UniProt P20309); conditions: read-out: pEC50/pIC50 (converted)
T7 construct: expressed in transfected cells; host or cells: NIH3T3
Procedure: as §1, §2

T7 sequence (P20309 whole entry): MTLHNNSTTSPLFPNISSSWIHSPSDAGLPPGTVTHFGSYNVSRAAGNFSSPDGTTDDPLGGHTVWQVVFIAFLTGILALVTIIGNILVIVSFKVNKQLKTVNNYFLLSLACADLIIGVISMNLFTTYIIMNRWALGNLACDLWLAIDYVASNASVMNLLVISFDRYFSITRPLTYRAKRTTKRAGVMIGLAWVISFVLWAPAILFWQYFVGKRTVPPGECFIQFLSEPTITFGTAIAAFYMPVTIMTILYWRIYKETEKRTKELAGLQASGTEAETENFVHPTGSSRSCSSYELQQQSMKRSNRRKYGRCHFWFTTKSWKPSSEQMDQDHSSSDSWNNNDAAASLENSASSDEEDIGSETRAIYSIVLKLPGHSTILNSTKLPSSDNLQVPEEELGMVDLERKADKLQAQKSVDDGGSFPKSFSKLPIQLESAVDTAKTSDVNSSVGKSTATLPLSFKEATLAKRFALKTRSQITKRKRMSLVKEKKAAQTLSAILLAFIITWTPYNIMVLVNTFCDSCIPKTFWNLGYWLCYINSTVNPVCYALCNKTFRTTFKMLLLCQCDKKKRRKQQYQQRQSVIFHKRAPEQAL
T4 sequence (P35367 whole entry): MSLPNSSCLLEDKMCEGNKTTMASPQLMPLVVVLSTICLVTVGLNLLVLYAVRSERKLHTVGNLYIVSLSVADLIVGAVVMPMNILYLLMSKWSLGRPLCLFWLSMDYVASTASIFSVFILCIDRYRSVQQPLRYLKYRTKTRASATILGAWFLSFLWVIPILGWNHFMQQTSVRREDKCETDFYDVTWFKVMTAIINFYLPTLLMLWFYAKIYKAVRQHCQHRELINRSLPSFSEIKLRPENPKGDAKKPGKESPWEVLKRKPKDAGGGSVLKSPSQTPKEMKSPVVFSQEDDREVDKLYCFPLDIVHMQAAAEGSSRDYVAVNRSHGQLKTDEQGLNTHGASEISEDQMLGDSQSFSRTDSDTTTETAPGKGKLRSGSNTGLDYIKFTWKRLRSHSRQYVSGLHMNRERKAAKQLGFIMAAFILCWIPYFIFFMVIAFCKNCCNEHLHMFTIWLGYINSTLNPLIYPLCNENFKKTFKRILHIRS
T5 sequence (P37288 whole entry): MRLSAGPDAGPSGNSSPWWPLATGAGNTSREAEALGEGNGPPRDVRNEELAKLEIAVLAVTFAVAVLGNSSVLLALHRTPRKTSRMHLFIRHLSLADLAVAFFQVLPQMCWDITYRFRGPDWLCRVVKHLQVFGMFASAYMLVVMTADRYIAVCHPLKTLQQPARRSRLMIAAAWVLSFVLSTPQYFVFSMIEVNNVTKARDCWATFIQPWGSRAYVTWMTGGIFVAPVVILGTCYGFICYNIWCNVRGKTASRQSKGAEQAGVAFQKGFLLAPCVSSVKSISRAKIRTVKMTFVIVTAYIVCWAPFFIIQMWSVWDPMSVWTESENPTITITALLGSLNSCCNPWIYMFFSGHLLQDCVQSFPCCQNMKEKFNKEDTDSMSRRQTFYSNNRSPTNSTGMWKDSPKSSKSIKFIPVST
T1 sequence (P41145 whole entry): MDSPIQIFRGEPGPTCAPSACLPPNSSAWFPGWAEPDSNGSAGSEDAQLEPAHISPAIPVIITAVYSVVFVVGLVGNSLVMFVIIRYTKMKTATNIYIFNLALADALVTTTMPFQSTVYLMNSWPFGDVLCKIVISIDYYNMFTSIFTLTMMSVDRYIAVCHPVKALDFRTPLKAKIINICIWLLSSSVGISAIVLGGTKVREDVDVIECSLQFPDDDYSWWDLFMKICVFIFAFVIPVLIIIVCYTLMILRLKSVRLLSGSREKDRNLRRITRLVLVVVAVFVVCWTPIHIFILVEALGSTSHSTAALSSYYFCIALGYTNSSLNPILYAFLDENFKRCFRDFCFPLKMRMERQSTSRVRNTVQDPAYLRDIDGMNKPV

COc1ccc(CC(=O)N(Cc2ccc(C)cc2)C2CCN(C)CC2)cc1 [Example 50ELH27, 2-(4-Methoxyphenyl)-N-(4-methylbenzyl)-N-(1-methylpiperidin-4-yl)acetamide]
> 3.16 µM: EC50 [1] | EC50 ([2]; agonist) | IC50 ([2]; antagonist) | EC50 ([3]; agonist) | IC50 ([3]; antagonist) | IC50 ([4]; Inv. Agonist) | EC50 ([4]; agonist) | EC50 [5] | EC50 ([6]; agonist) | IC50 ([6]; antagonist) | EC50 ([7]; agonist) | IC50 ([7]; antagonist)

Reference: US20080051429A1, “USE OF 4-AMINO-PIPERIDINES FOR TREATING SLEEP DISORDERS” (priority 2006, published 2008)
